These results are taken from patent US12187773B2, “Modified GIP peptide analogues” (Antag Therapeutics ApS, priority 2018, dated 2025).

Where a SMILES comes first, the peptide text is derived from it. The star is where a group is joined. C16 diacid = O=C(O)CCCCCCCCCCCCCCC(=O)*

The target of assay [1] is T1, human GIP receptor (Homo sapiens, UniProt P48546).
T1 sequence (P48546 22-466): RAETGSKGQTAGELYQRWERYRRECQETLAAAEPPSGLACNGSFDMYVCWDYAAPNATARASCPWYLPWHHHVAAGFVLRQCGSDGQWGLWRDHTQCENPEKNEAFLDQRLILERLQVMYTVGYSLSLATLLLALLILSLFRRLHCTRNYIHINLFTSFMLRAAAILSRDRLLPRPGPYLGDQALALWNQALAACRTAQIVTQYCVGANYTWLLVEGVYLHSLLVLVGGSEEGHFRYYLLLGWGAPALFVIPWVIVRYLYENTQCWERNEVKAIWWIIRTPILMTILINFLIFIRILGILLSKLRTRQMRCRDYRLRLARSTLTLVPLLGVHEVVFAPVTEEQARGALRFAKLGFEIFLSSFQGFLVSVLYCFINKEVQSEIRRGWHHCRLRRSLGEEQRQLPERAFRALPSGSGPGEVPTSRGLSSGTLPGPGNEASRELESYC
Kind of assay: cAMP agonism (CisBio cAMP Dynamic 2 HTRF assay). In kind it is cell-based. Here is the method:
To test for agonistic properties at the GIP receptor, compounds were diluted and added to cells as described above and incubated for 30 min at 37° C. The resulting increase in intracellular cAMP was determined using the CisBio cAMP Dynamic 2 HTRF Assay Kit as described above.
For orientation: Time-resolved FRET reads energy transfer from a long-lived donor to a nearby acceptor.

The target in assay [2] is T1, human GIP receptor. In words: cAMP accumulation, agonism (DiscoveRx HitHunter cAMP XS assay). In kind it is cell-based. Set-up: host or cells: COS-7 (transient, calcium phosphate; pCMV-Script vector). As for the experimental part: Transient transfected COS-7 cells expressing the human GIP receptor were seeded in white 96-well plates with a density of 3.5*10^4/well. The day after, the cells were washed twice with Hepes buffered saline (HBS) buffer and incubated with HBS and 1 mM 3-isobutyl-1-methylxanthine (IBMX) for 30 min at 37° C. To test for agonistic properties, ligands were added and incubated for 30 min at 37° C. In order to test for antagonistic properties, the cells were preincubated with the antagonists for 10 min prior to the addition of the agonist and subsequent incubated for 20 additional min. The HitHunter™ cAMP XS assay (DiscoveRx) was carried out according to the manufacturer's instructions.
In order to develop a GIP receptor antagonist with improved antagonistic properties, individual amino acid substitutions were conducted on GIP(3-30)NH2 and in particular at positions: 16, 18, 30 or 3, 16, 18, 30. The obtained peptides were lipidated at position 18 directly or via a linker. Both the agonistic and antagonistic profiles of the compounds were tested in cAMP accumulation experiments done in transiently transfected COS-7 cells expressing the human GIP receptor. To investigate if these mutated analogues still retained their antagonistic properties, their ability to inhibit a GIP-mediated cAMP response corresponding to 50-80% of maximum activation was examined.

Setting [3] is: HEK293, read-out: cAMP agonism, % Efficacy, Table 1C, HEK-293 cells.

On to `CC[C@H](C)[C@H](NC(=O)[C@H](CO)NC(=O)[C@H](Cc1ccc(O)cc1)NC(=O)[C@H](CC(=O)O)NC(=O)[C@H](CO)NC(=O)[C@@H](NC(=O)[C@H](Cc1ccccc1)NC(=O)[C@@H](NC(=O)CNC(=O)[C@@H]1CCCN1)[C@@H](C)O)[C@@H](C)CC)C(=O)N[C@@H](C)C(=O)N[C@@H](CCSC)C(=O)N[C@@H](CC(=O)O)C(=O)N[C@@H](CCCNC(=N)N)C(=O)N[C@H](C(=O)N[C@@H](CCCCNC(=O)COCCOCCNC(=O)CC[C@H](NC(=O)CCCCCCCCCCCCCCC(=O)O)C(=O)O)C(=O)N[C@@H](CCC(N)=O)C(=O)N[C@@H](CCC(N)=O)C(=O)N[C@@H](CC(=O)O)C(=O)N[C@@H](Cc1ccccc1)C(=O)N[C@H](C(=O)N[C@@H](CC(N)=O)C(=O)N[C@@H](Cc1c[nH]c2ccccc12)C(=O)N[C@@H](CC(C)C)C(=O)N[C@@H](CC(C)C)C(=O)N[C@@H](C)C(=O)N[C@@H](CCC(N)=O)C(=O)N[C@@H](CCCNC(=N)N)C(=O)O)C(C)C)[C@@H](C)CC` [AT273] (HELM PEPTIDE1{P.G.T.F.I.S.D.Y.S.I.A.M.D.R.I.K.Q.Q.D.F.V.N.W.L.L.A.Q.R}|PEPTIDE2{[O=C(O)CCCCCCCCCCCCCCC(=O)[*:2]].[gGlu].[O=C(COCCOCCN[*:1])[*:2]]}$PEPTIDE1,PEPTIDE2,16:R3-3:R2$$$V2.0; N-terminus assumed), for which the Emax stood at 0% on human GIP receptor [1] (setting [3]) and 35% at human GIP receptor [2] (COS-7, read-out: cAMP agonism, Emax).

As to `CC[C@H](C)[C@H](NC(=O)[C@H](CO)NC(=O)[C@H](Cc1ccc(O)cc1)NC(=O)[C@H](CC(=O)O)NC(=O)[C@H](CO)NC(=O)[C@@H](NC(=O)[C@H](Cc1ccccc1)NC(=O)[C@@H](NC(=O)CNC(=O)[C@@H](N)CCC(=O)O)[C@@H](C)O)[C@@H](C)CC)C(=O)N[C@@H](C)C(=O)N[C@@H](CCSC)C(=O)N[C@@H](CC(=O)O)C(=O)N[C@@H](CCCCN)C(=O)N[C@H](C(=O)N[C@@H](CCCCNC(=O)CCCCCCCCCCCCCCC(=O)O)C(=O)N[C@@H](CCC(N)=O)C(=O)N[C@@H](CCC(N)=O)C(=O)N[C@@H](CC(=O)O)C(=O)N[C@@H](Cc1ccccc1)C(=O)N[C@H](C(=O)N[C@@H](CC(N)=O)C(=O)N[C@@H](Cc1c[nH]c2ccccc12)C(=O)N[C@@H](CC(C)C)C(=O)N[C@@H](CC(C)C)C(=O)N[C@@H](C)C(=O)N[C@@H](CCC(N)=O)C(=O)N[C@@H](CCC(=O)O)C(N)=O)C(C)C)[C@@H](C)CC` [AT477] (H-EGTFISDYSIAMDKIK(C16 diacid)QQDFVNWLLAQE-NH2; N-terminus assumed), the Emax on human GIP receptor [1] (setting [3]) came out at 0%. Also, the “cAMP agonism, Emax” value on human GIP receptor [2] (Table 1B, DiscoveRx, COS-7 cells) is reported as “No Agonism”.

For the compound `CC[C@H](C)[C@H](NC(=O)[C@H](CO)NC(=O)[C@H](Cc1ccc(O)cc1)NC(=O)[C@H](CCC(=O)O)NC(=O)[C@H](CO)NC(=O)[C@@H](NC(=O)[C@H](Cc1ccccc1)NC(=O)[C@@H](NC(=O)CNC(=O)[C@@H](N)CCC(=O)O)[C@@H](C)O)[C@@H](C)CC)C(=O)N[C@@H](C)C(=O)N[C@@H](CCSC)C(=O)N[C@@H](CCC(=O)O)C(=O)N[C@@H](CCCCN)C(=O)N[C@H](C(=O)N[C@@H](CCCCNC(=O)CCCCCCCCCCCCCCC(=O)O)C(=O)N[C@@H](CCC(N)=O)C(=O)N[C@@H](CCC(N)=O)C(=O)N[C@@H](CCC(=O)O)C(=O)N[C@@H](Cc1ccccc1)C(=O)N[C@H](C(=O)N[C@@H](CCC(N)=O)C(=O)N[C@@H](Cc1c[nH]c2ccccc12)C(=O)N[C@@H](CC(C)C)C(=O)N[C@@H](CC(C)C)C(=O)N[C@@H](C)C(=O)N[C@@H](CCC(N)=O)C(=O)N[C@@H](CCCCN)C(N)=O)C(C)C)[C@@H](C)CC` [AT482] (H-EGTFISEYSIAMEKIK(C16 diacid)QQEFVQWLLAQK-NH2; N-terminus assumed), the Emax at human GIP receptor [1] (HEK293, Table 1C, HEK-293 cells, read-out: cAMP agonism, % Efficacy) amounted to 0%; on human GIP receptor [2] (Table 1B, DiscoveRx, COS-7 cells, read-out: cAMP agonism, Emax), 10%.
